Laboratory results from article PMC4000049, “Genome segment 5 of Antheraea mylitta cytoplasmic polyhedrosis virus encodes a bona fide guanylyltransferase” (Virology Journal, 2014).

Tested on: T1, p65 (AmCPV S5-encoded guanylyltransferase)
T1 construct: entire S5 ORF (nt 266 to 2086; 606 residues, ~65 kDa), His-tagged in pQE-30, E. coli M15, Ni-NTA
Assay: pyrophosphatase-coupled malachite green assay of capping, replot of double-reciprocal plots
Assay type: biochemical, Antheraea mylitta cypovirus 4
Settings: co-substrate 5'-diphosphate-ended viral RNA (50 to 150 nM), 5 mM MgCl2, 5 mM DTT, 50 mM Tris-HCl pH 7.5, 25°C; ping-pong; covalent GMP intermediate

Nc1nc2c(ncn2[C@@H]2O[C@H](COP(=O)(O)OP(=O)(O)OP(=O)(O)O)[C@@H](O)[C@H]2O)c(=O)[nH]1 [GTP]
Km: 34.2 µM
